Assay results published in US10167284B2, “Spirocyclic compounds as agonists of the muscarinic M1 receptor and/or M4 receptor” (HEPTARES THERAPEUTICS LIMITED, priority 2015, dated 2019).

Experiments:
[1] = target: human muscarinic M3 receptor (Homo sapiens, UniProt P20309); experiment: Alphascreen Surefire phospho-ERK1/2 functional assay, M3; conditions: for Emax: CHO, read-out: M3 % Emax cf. ACh, CHO cells stably expressing human M3; for Emax / M3 % Emax cf. ACh: Emax relative to ACh; for M3 % Emax cf. ACh / pEC50 M3: CHO cells stably expressing human M3; for pEC50 M3: phospho-ERK1/2
Sequence of human muscarinic M3 receptor (P20309 whole entry): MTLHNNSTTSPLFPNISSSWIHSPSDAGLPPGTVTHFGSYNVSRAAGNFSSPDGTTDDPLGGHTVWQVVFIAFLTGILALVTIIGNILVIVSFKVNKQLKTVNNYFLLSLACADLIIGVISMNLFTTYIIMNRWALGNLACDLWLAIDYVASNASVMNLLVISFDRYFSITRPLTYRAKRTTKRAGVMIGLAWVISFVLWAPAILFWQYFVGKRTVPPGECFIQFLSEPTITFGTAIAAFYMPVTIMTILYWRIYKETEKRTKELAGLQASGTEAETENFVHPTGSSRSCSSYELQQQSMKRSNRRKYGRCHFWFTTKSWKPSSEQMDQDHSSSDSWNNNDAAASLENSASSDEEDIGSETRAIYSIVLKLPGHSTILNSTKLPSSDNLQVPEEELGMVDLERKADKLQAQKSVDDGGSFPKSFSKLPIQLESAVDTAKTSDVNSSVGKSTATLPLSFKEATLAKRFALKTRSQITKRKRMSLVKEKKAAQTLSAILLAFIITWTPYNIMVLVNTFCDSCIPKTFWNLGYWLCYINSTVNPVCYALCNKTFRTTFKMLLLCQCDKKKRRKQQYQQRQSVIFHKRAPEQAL
Description: (§1) CHO cells stably expressing the human muscarinic M1, M2, M3 or M4 receptor were plated (25K/well) onto 96-well tissue culture plates in MEM-alpha+10% dialysed FBS. Once adhered, cells were serum-starved overnight. Agonist stimulation was performed by the addition of 5 μL agonist to the cells for 5 min (37° C.). Media was removed and 50 μL of lysis buffer added. After 15 min, a 4 μL sample was transferred to 384-well plate and 7 μL of detection mixture added. Plates were incubated for 2 h with gentle agitation in the dark and then read on a PHERAstar plate reader.
(§2) pEC50 and Emax figures were calculated from the resulting data for each receptor subtype.

[2] = target: T1, human muscarinic M1 receptor (Homo sapiens, UniProt P11229); experiment: Alphascreen Surefire phospho-ERK1/2 functional assay, M1; format: cell-based; conditions: for EC50 / M1 % Emax cf. ACh: CHO cells stably expressing human M1; for EC50: phospho-ERK1/2, read-out: pEC50 M1 (converted); for Emax: CHO, read-out: M1 % Emax cf. ACh, CHO cells stably expressing human M1; for Emax / M1 % Emax cf. ACh: Emax relative to ACh
T1 construct: expressed in transfected cells
T1 sequence (P11229 1-460): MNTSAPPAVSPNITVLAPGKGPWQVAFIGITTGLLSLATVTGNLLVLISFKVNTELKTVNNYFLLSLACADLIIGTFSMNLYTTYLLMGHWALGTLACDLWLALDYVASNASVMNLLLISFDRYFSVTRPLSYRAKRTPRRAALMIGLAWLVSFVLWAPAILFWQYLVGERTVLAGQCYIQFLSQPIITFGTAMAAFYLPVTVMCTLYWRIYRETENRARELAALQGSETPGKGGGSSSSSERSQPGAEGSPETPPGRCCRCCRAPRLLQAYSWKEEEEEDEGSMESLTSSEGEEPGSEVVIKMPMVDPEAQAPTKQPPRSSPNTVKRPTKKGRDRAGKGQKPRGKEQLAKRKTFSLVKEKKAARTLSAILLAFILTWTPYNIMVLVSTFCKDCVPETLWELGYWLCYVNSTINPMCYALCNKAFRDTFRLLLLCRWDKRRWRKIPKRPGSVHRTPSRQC

[3] = target: T2, human muscarinic M2 receptor (Homo sapiens, UniProt P08172); experiment: Alphascreen Surefire phospho-ERK1/2 functional assay, M2; conditions: for Emax: CHO, read-out: M2 % Emax cf. ACh, CHO cells stably expressing human M2; for Emax / M2 % Emax cf. ACh: Emax relative to ACh; for EC50: pEC50 M2, CHO cells stably expressing human M2; for EC50 / pEC50 M2: phospho-ERK1/2; for M2 % Emax cf. ACh / pEC50 M2: CHO cells stably expressing human M2
T2 sequence (P08172 1-466): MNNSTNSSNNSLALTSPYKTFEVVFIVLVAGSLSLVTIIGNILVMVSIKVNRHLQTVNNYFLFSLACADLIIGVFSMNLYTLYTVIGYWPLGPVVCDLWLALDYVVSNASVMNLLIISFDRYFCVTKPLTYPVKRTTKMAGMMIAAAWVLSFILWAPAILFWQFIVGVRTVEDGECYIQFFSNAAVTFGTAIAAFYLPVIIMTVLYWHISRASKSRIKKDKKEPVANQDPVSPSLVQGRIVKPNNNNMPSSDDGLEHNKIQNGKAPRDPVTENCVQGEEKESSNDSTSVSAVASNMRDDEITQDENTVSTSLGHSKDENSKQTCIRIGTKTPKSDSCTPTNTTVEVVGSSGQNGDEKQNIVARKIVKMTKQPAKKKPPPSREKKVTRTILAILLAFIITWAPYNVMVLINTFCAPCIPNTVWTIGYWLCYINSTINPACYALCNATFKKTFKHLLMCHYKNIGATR
Description: as §1, §2

[4] = target: T3, human muscarinic M4 receptor (Homo sapiens, UniProt P08173); experiment: Alphascreen Surefire phospho-ERK1/2 functional assay, M4; format: cell-based; conditions: for EC50: read-out: pEC50 M4 (converted); for Emax: CHO, read-out: M4 % Emax cf. ACh, CHO cells stably expressing human M4; for Emax / M4 % Emax cf. ACh: Emax relative to ACh
T3 construct: expressed in transfected cells
T3 sequence (P08173 1-479): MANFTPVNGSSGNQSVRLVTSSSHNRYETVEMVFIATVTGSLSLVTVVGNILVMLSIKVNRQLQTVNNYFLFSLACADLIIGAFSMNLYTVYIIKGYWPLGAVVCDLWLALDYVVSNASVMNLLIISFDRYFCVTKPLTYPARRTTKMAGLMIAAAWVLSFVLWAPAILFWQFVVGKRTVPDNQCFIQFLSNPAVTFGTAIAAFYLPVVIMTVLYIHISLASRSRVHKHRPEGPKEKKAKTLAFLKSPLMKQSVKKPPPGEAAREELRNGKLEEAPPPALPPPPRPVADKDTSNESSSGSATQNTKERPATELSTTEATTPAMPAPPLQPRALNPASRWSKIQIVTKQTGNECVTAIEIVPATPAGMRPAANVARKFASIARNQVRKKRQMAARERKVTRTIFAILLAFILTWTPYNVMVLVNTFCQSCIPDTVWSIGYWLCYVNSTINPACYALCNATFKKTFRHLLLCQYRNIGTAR

[5] = CHO cells stably expressing human M4, phospho-ERK1/2
[6] = CHO cells stably expressing human M4

EC50 [1] [nM] | Emax [1] [%] | EC50 [2] [nM] | Emax [2] [%] | Emax [3] [%] | EC50 [3] [nM] | EC50 [4, 5] [nM] | Emax [4] [%] | M3 % Emax cf. ACh [1] | pEC50 M3 [1] | M1 % Emax cf. ACh [2] | M2 % Emax cf. ACh [3] | M4 % Emax cf. ACh [4, 6] | pEC50 M2 [3] | pEC50 M4 [4, 5] | SMILES
> 20000 | 7 | 1000 | 86 | 7 | > 20000 | 63.1 | 106 |  |  |  |  |  |  |  | CCOC(=O)N1CCC2(CC(N3CCC4(CC3)OC(=O)N(C3CC3)C4CC)C2)C1 (mixture of isomers) [4-47 mixture of diastereomers]
> 20000 | 42 | 251 | 113 | 13 | > 20000 | 200 | 76 |  |  |  |  |  |  |  | [2H]C([2H])([2H])OC(=O)N1CCC2(CC(N3CCC4(CC3)CNC(=O)O4)C2)C1 (single isomer, unassigned) [4-2 Isomer 2]
> 20000 | 14 | 25.1 | 101 | 11 | > 20000 | 79.4 | 57 |  |  |  |  |  |  |  | COC(=O)N1CCC2(CC(N3CCC4(CC3)CC(=O)NC4Cc3ccccc3)C2)C1 (single isomer, unassigned) [3-7 Isomer 2]
> 20000 | 14 | 794 | 62 | 4 | > 20000 | > 20000 | 47 |  |  |  |  |  |  |  | CCOC(=O)N1CCC2(CC(N3CCC4(CNC(=O)C4)C(F)C3)C2)C1 (single isomer, unassigned) [3-9 Isomer 2]
 |  | 25.1 |  |  | > 6310 | 6.31 |  | (8) % | <4.7 | (111) % | (20) % | (118) % |  |  | CCOC(=O)N1CCC2(CC(N3CCC4(CC3)OC(=O)NC4CC)C2)C1 (single isomer, unassigned) [4-12 Isomer 3]
> 20000 | 11 | 501 | 56 | 3 | > 20000 | 100 | 77 |  |  |  |  |  |  |  | CCOC(=O)N1CCC2(CC(N3CCC4(CC3)OC(=O)N(OC)C4CC)C2)C1 (mixture of isomers) [4-48 mixture of diastereomers]
 |  | 63.1 |  |  |  | 6.31 |  | (17) % | <4.7 | (90) % | (20) % | (76) % | <4.7 |  | CCC1NC(=O)CC12CCN(C1CC3(CCN(C(=O)OC)C3)C1)CC2 (single isomer, unassigned) [3-4 Isomer 4]
> 20000 | 8 | 794 | 56 | 87 | > 20000 | 63.1 | 88 |  |  |  |  |  |  |  | CCOC(=O)N1CCC2(CC(N3CCC4(CC3)OC(=O)N(CC3CC3)C4(C)C)C2)C1 (single isomer, unassigned) [4-39 Isomer 2]
> 20000 | 4 | > 20000 | 12 | 2 | > 20000 | 3.16 | 39 |  |  |  |  |  |  |  | CCOC(=O)N1CC2(CCC(N3CCC4(CC3)OC(=O)NC4(C)C)C2)C1 (single isomer, unassigned) [8-3 Isomer 2]
 |  | 1260 |  |  |  | 79.4 |  | (10) % | <4.7 | (67) % | (14) % | (97) % | <4.7 |  | CCOC(=O)N1CCC2(CC(N3CCC4(CC3)OC(=O)N3CCCC34)C2)C1 (single isomer, unassigned) [4-44 Isomer 4]
> 20000 | 2 | 631 | 104 | 41 | > 20000 | 501 | 69 |  |  |  |  |  |  |  | CCCN1CC2(CCN(C3CC4(CCN(C(=O)OCC)C4)C3)CC2)OC1=O (single isomer, unassigned) [4-7 Isomer 2]
> 20000 | 42 | > 20000 | 8 | 5 | > 20000 | 100 | 86 |  |  |  |  |  |  |  | CCOC(=O)N1CCC2(CC(N3CCC4(CC3)OC(=O)N(CCOC)C4(C)C)C2)C1 (single isomer, unassigned) [4-41 Isomer 2]
> 20000 | 4 | 316 |  | 8 | > 20000 | 50.1 |  |  |  | (88) % |  | (32) % |  |  | CCCN1C(=O)OC2(CCN(C3CC4(CCN(C(=O)OCC)C4)C3)CC2)C1CC (single isomer, unassigned) [4-23 Isomer 3]
> 20000 | 4 | 158 |  | 10 | > 20000 | 31.6 |  |  |  | (97) % |  | (59) % |  |  | CCOC(=O)N1CCC2(CC(N3CCC4(CC3)OC(=O)N(C)C4CC)C2)C1 (single isomer, unassigned) [4-20 Isomer 3]
 |  | 251 |  |  |  |  |  | (9) % | <4.7 | (107) % | (15) % | (117) % | <4.7 | 6.9 | CCOC(=O)N1CC2(CC(N3CCC4(CC3)OC(=O)NC4CC)C2)C1 (single isomer, unassigned) [2-1 Isomer 1]
> 20000 | 4 | 158 |  | 3 | > 20000 | 316 |  |  |  | (71) % |  | 26) % |  |  | CCOC(=O)N1CCC2(CC(N3CCC4(CC3)CC(=O)NN4Cc3ccccc3)C2)C1 (single isomer, unassigned) [6-6 Isomer 2]
> 20000 | 1 | 12600 | 35 | 52 | > 20000 | 79.4 | 106 |  |  |  |  |  |  |  | CCCN1C(=O)OC2(CCN(C3CC4(CCN(C(=O)OC)C4)C3)CC2)C1(C)C (single isomer, unassigned) [4-36 Isomer 2]
> 20000 | 1 | 200 |  |  | > 20000 | 31.6 |  |  |  | (95) % | (3) % | (80) % |  |  | CCOC(=O)N1CCC2(CC(N3CCC4(CC3)OC(=O)N(CC)C4CC)C2)C1 (single isomer, unassigned) [4-22 Isomer 3]
> 20000 | 26 | 31.6 | 89 | 20 | > 20000 | 3.98 | 100 |  |  |  |  |  |  |  | CCCN1NC(=O)CC12CCN(C1CC3(CCN(C(=O)OCC)C3)C1)CC2 (single isomer, unassigned) [6-4 Isomer 2]
